Test results published in publication PMC4214760, “Host Cofactors and Pharmacologic Ligands Share an Essential Interface in HIV-1 Capsid That Is Lost upon Disassembly” (PLoS Pathogens, 2014).
“Also recorded” adds a separate entry of the source. Where two headings read alike, the source gives them in different places. Ends that are not written are not given here.

Assays:
[1] = target: T1, HIV-1 CA hexamer (Human immunodeficiency virus type 1 group M subtype B, UniProt P12493, A146C/E177C/M317A/W316A); assay: biochemical; format: binding
T1 construct: produced by assembly of recombinant CA containing four amino acid substitutions; made in house
Protocol: (§1) Hexamer protein was dialysed against ITC buffer (50 mM TRIS pH 7.4, 150 mM NaCl) for experiments using intact hexamer, or ITC buffer containing 1 mM DTT for experiments with monomerized hexamer. The monomeric status of hexamer dialysed against buffer containing DTT was confirmed by size exclusion chromatography. Peptides were dissolved in the same buffer as hexamer; NUP153 peptides were first dissolved in DMSO to a concentration of 8 mM before diluting in buffer. Drugs were dissolved in DMSO to a concentration of 5 mM, before diluting in buffer. In all cases, hexamer (in the syringe) was titrated into the peptide or drug ligand (in the cell), with the exception of the competition experiments, whereby peptide (400 µM) was titrated into hexamer (30 µM) in the presence of drug (100 µM). Typical concentrations used were 600–800 µM hexamer titrated against 60–80 µM peptide unless indicated otherwise, and 200 µM hexamer titrated against 30 µM drug. ITC experiments were conducted on a MicroCal ITC-200, and data analyzed using Origin data analysis software (MicroCal).

[2] = tested on: VSV-G pseudotyped GFP-encoding HIV-1 vector; format: cell-based
[3] = target: T2, monomeric HIV-1 CA (Human immunodeficiency virus type 1 group M subtype B, UniProt P12493, A146C/E177C/M317A/W316A); assay: ITC binding to monomeric CA (hexamer monomerized with 1 mM DTT)
T2 construct: produced by assembly of recombinant CA containing four amino acid substitutions; made in house
Protocol: as §1

[4] = tested on: HIV-1 reverse transcription; format: cell-based
[5] = target: T1, HIV-1 CA hexamer; assay: ITC competition: cofactor peptide titrated into hexamer in the presence of drug; format: binding
Protocol: as §1

[6] = read-out: Kd (approximate), hexamer binding of CPSF6 and NUP153 mutant peptides, ITC, Hex 0.76-1.122 mM into peptide 0.076-0.112 mM, NB = no binding detectable

## CN(C(=O)[C@H](Cc1ccccc1)NC(=O)Cc1cc[nH]c1)c1ccccc1 [PF74_3]
[1]
  Kd: 5.5 µM
[1]; ITC
  Fold reduction in affinity to hexamer relative to PF74: 46 fold

## CN(C(=O)[C@H](Cc1ccccc1)NC(=O)Cc1ccoc1)c1ccccc1 [PF74_4]
[1]; ITC
  Fold reduction in affinity to hexamer relative to PF74: 94 fold

## CN(C(=O)[C@H](Cc1ccccc1)NC(=O)Cc1ccsc1)c1ccccc1 [PF74_5]
[1]; ITC
  Fold reduction in affinity to hexamer relative to PF74: 54 fold

## CN(C(=O)[C@H](Cc1ccccc1)NC(=O)CC1CCOC1)c1ccccc1 (stereo partly shown) [PF74_6]
[1]; ITC
  Fold reduction in affinity to hexamer relative to PF74: > 1000 fold

## PF74
[2]
  Reversal of inhibition of infection on wash out: completely; also recorded: partially
  Time post-infection by which almost all efficacy was lost when addition was delayed: ≤ 10 h
[3]
  N (stoichiometry), binding to monomeric CA: 0.7
  ΔH, binding to monomeric CA: -16.1 kcal/mol
  ΔS, binding to monomeric CA: -29.0 (cal/mol)/deg
[4]
  Reversibility of block to reverse transcription on wash out: largely irreversible
[1]
  Fold higher affinity to hexamer than BI-2: 10 fold
  Fold increase in affinity to hexamer compared with monomeric CA: 22 fold
  N (stoichiometry), binding to HIV-1 hexamer: 0.7
  ΔH, binding to HIV-1 hexamer: -9.02 kcal/mol
  ΔS, binding to HIV-1 hexamer: 1.20 (cal/mol)/deg
[5]
  Competition with CPSF6 peptide for binding to hexamer: inhibit CPSF6 binding to hexamer
  Competition with NUP153 peptide for binding to hexamer: prevent NUP153 binding to hexamer

## PVLFDGQPFGQPPLG [CPSF6pep P317D]
[1]; [6]
  Kd: > 700 µM

## PVLFPGQPAGQPPLG [CPSF6pep F321A]
[1]; [6]
  Kd: > 700 µM

## PVLFPRQPFGQPPLG [CPSF6pep G318R]
[1]; [6]
  Kd: > 700 µM

## TNNSPAGVFTFGANSST [Nup153pep S1412A]
[1]
  Kd: ~130 µM

## TNNSPSGVATFGANSST [Nup153pep F1415A]
[1]; [6]
  Kd: > 700 µM

## TNNSPSGVFAFGANSST [Nup153pep T1416A]
[1]; [6]
  Kd: > 700 µM

## TNNSPSGVFTAGANSST [Nup153pep F1417A]
[1]; [6]
  Kd: > 700 µM
